Reference: publication PMC10050424, “Structural basis of the substrate recognition and inhibition mechanism of Plasmodium falciparum nucleoside transporter PfENT1” (Nature Communications, 2023)
“And” between values parts separate entries of the source, which are not always exact repeats. Equal values may be shown once.

What was measured:
PfENT1 W53A = target: T1, PfENT1 W53A (Plasmodium falciparum, UniProt Q8IDM6, W53A); test: Inosine uptake assay, yeast expressing PfENT1 W53A; format: cell-based; details: Fig. 3d, construct W53A
T1 construct: expressed in transfected cells; host or cells: S. cerevisiae BY4741, FUI1 deleted, PfENT1 mutant knock-in under the TEF1 promoter
Text: Codon-optimized PfENT1 (for expression in yeast) was synthesized by Sangon Biotech. The carboxyl terminus of PfENT1 was HA-tagged through PCR. The TEF1p promoter and PGK1t terminator were amplified from BY4741 genomic DNA. Overlap PCR was applied to generate the gene overexpression cassette of PfENT1 (TEF1p promoter-PfENT1-PGK1t terminator). The two 600-bp homologous arms corresponding to the upstream and downstream regions of the FUI1 gene were amplified from BY4741 genomic DNA. The gene cassette of the ‘TEF1p promoter-PfENT1-PGK1t terminator’ together with the two homologous arms was cloned into the PUC19 plasmid through Gibson assembly, generating the final plasmid PUC19: PfENT1. PfENT1 mutations were generated using point mutation and verified by Sanger sequencing. The spacer targeting the FUI1 gene (5ʹ-[…]-3ʹ) was cloned into the pCas-BsaI plasmid to generate the pCas-FUI1 plasmid as described previously. […]
Cells were grown overnight in YPD medium to mid-log phase and harvested by centrifugation at 3000 × g for 5 min. […] After washing by vacuum filtration with 2 ml ice-cold 2% glucose, the radioactivity retained on the filter was incubated with 1 mL of ULTIMA GOLD scintillation fluid (Perkin Elmer, 77-15311). Counts were measured using a liquid scintillation analyzer (Perkin Elmer, Tri-Carb 5110TR). […]

PfENT1 mutant Q135A = target: T2, PfENT1 mutant Q135A (Plasmodium falciparum, UniProt Q8IDM6, Q135A); test: ITC binding to PfENT1 mutant Q135A; details: Fig. 3c
T2 construct: 10xHis (N); made in house; host or cells: Sf9 insect cells (baculovirus)
Description: (§1) For the in vitro binding assay, Sf9 cells were solubilized in lysis buffer containing 2% (w/v) n-dodecyl-β-D-maltopyranoside (DDM, Anatrace) and protease inhibitor cocktail (0.8 μM aprotinin, 2 μM pepstatin, and 5 μg/ml leupeptin) at 4 °C for 2 h. The soluble supernatant was collected via centrifugation and incubated with Ni-NTA resin (QIAGEN) at 4 °C for 1 h. The resin was washed and eluted using lysis buffer containing 0.05% (w/v) DDM and 30 mM/300 mM imidazole. The protein was further purified by size-exclusion chromatography (Superdex 200 Increase 10/300; GE Healthcare) in buffer containing 25 mM MES (pH 6.0), 150 mM NaCl, and 0.05% (w/v) DDM. The peak fractions were pooled and concentrated to 10~50 μM for the nucleoside-binding assay.
(§2) The binding affinity between wild-type and mutant PfENT1 with nucleosides and GSK4 was measured using a Micro-Cal ITC200 (Malvern). All proteins were prepared in 25 mM MES (pH 6.0), 150 mM NaCl, and 0.05% (w/v) DDM. Nucleosides (5~10 mM) and GSK4 (100-200 μM) dissolved in the same buffer were titrated against 20–50 μM PfENT1 proteins at 25 °C. PEAQ-ITC analysis software (MicroCal) was employed to analyze the data. All titrations were repeated three times.

PfENT1 mutant W53A = target: T3, PfENT1 mutant W53A (Plasmodium falciparum, UniProt Q8IDM6, W53A); test: ITC binding to PfENT1 mutant W53A
T3 construct: 10xHis (N); made in house; host or cells: Sf9 insect cells (baculovirus)
Description: as §1, §2

PfENT1 mutant R291A = target: T4, PfENT1 mutant R291A (Plasmodium falciparum, UniProt Q8IDM6, R291A); test: ITC binding to PfENT1 mutant R291A
T4 construct: 10xHis (N); made in house; host or cells: Sf9 insect cells (baculovirus)
Description: as §1, §2

PfENT1 mutant S49A = target: T5, PfENT1 mutant S49A (Plasmodium falciparum, UniProt Q8IDM6, S49A); test: ITC binding to PfENT1 mutant S49A; details: Fig. 3c
T5 construct: 10xHis (N); made in house; host or cells: Sf9 insect cells (baculovirus)
T5 sequence (Q8IDM6 1-422 S49A): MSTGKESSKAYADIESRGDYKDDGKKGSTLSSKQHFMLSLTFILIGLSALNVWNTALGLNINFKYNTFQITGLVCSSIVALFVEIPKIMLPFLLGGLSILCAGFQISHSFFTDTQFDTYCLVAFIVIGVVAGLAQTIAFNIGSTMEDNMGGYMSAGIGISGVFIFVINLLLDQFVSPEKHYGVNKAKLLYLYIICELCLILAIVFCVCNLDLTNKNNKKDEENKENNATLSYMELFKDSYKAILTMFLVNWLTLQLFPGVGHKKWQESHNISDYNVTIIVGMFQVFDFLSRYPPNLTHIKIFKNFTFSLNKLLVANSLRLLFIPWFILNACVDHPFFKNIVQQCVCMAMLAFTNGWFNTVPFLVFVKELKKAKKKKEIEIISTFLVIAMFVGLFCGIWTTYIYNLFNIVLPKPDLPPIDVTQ
Description: as §1, §2

T3 sequence (Q8IDM6 whole entry W53A): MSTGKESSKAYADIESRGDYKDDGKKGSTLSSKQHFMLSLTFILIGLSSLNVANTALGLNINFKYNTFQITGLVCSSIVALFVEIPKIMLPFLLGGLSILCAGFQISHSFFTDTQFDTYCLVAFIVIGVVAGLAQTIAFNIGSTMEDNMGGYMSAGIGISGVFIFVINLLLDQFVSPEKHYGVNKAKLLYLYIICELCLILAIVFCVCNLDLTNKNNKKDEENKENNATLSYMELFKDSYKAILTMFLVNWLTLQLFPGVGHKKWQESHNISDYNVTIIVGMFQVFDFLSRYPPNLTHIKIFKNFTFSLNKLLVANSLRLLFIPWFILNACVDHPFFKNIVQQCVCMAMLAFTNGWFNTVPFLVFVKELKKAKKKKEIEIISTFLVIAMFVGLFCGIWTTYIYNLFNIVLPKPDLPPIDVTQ
T4 sequence (Q8IDM6 whole entry R291A): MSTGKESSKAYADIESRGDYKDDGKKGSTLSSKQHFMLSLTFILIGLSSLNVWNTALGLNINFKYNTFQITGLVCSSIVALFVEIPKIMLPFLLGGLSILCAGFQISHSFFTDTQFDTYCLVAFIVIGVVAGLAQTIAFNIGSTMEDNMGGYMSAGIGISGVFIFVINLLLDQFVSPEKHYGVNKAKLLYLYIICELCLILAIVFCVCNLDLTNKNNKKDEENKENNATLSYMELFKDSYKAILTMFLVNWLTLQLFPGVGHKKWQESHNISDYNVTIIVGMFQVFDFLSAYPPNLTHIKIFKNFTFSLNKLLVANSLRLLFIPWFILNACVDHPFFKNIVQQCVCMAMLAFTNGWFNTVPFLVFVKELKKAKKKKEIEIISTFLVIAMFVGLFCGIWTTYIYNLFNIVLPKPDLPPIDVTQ
T1 sequence (Q8IDM6 whole entry W53A): as the sequence (Q8IDM6 whole entry W53A) above
T2 sequence (Q8IDM6 whole entry Q135A): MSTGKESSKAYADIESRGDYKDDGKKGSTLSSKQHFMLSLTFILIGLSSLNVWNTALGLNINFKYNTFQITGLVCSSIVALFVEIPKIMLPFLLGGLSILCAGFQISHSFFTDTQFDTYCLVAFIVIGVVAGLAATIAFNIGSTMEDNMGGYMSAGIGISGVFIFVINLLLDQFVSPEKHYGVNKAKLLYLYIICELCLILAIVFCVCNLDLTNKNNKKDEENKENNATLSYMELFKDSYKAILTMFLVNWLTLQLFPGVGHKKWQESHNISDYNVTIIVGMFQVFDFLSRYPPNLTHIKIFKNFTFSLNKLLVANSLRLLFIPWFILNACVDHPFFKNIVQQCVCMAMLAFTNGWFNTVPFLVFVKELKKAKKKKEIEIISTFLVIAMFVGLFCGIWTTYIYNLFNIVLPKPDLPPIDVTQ

OC[C@H]1O[C@@H](n2cnc3c(O)ncnc32)[C@H](O)[C@@H]1O [Inosine, inosine]
Uptake of [3H]-inosine (Percentage of PfENT1 WT) (PfENT1 W53A): abolished the transport activity | binding affinity (Kd) (PfENT1 mutant Q135A): complete abolishment | Kd (PfENT1 mutant W53A; Kd, Mean and Mean ± SD, source data Figure 3c, construct W53A): 1830 µM | Kd (PfENT1 mutant W53A; Kd, N=3 (individual experiments), source data Figure 3c, construct W53A): 1900 µM and 1940 µM and 1650 µM | Kd (PfENT1 mutant W53A; binding affinity (Kd), ITC, Fig. 3c, mutant W53A, mean ± SD (n = 3)): 1830 ± 157 µM | weaker binding than the wild type (PfENT1 mutant W53A; inosine binding, W53A versus wild type): 30 fold | binding affinity (Kd) (PfENT1 mutant R291A; ITC, Fig. 3c, mutant R291A, mean ± SD (n = 3)): maintains inosine binding | Kd (PfENT1 mutant R291A; Kd, Mean and Mean ± SD, source data Figure 3c, construct R291A): 46.7 µM | Kd (PfENT1 mutant R291A; Kd, N=3 (individual experiments), source data Figure 3c, construct R291A): 53 µM and 56 µM and 31 µM | Kd (PfENT1 mutant R291A; binding affinity (Kd), ITC, Fig. 3c, mutant R291A, mean ± SD (n = 3)): 46.7 ± 13.6 µM | binding affinity (Kd) (PfENT1 mutant S49A): complete abolishment
